The text below walks through data of PMC7772889, “Integrating biokinetics and in vitro studies to evaluate developmental neurotoxicity induced by chlorpyrifos in human iPSC-derived neural stem cells undergoing differentiation towards neuronal and glial cells” (Reproductive Toxicology (Elmsford, N.y.), 2020).

The conditions of data set [1]: prenatal exposure to CPF; cited from earlier work.
The conditions of data set [2]: cited from earlier work.
Data set [3] deals with hiPSC-derived NSCs undergoing differentiation towards neurons and astrocytes. As to the kind of experiment: In vitro biokinetics of CPF and metabolites in medium, cells and plastic (HPLC-UV). On the procedure:
The nominal concentration causing 5 % decrease of viability (IC5) was previously identified, extrapolating a dose response curves obtained with six CPF nominal concentrations (0.49, 1.95, 7.81, 31.25, 125, and 500 μM) vs solvent control (0.1 % DMSO) after 14-day treatment by means of resazurin test (CellTiter-Blue® Reagent).
CPF stock solutions were prepared in DMSO and stored in glass at −20 °C until the beginning of each experiment. Freshly prepared treatment solutions were obtained after the dilution of stock solutions in a ratio of […] in serum-free culture medium, keeping DMSO concentration at 0.1 %. Aliquots of the stock and daily treatment solutions (considered as the starting solutions) were stored at −80 °C until HPLC analysis.
Cells (about 21,000 cells/cm^2), seeded on 6 well PDL- and reduced growth factor Matrigel coated plates, were treated during the differentiation process, starting from day 7 of differentiation up to day 21, with treatment/medium refreshed twice a week (Fig. 2). Exposure to CPF of cells or pre-coated wells (without cells) was initiated by adding 2 mL per well of the corresponding treatment solutions or the vehicle (control wells). Four biological replicates were carried out.
A first set of experiments was used to fine tune the experimental conditions, including time points and exposure conditions, taking into account possible metabolism, bioaccumulation and/or physical sequestration processes. All the fractions (i.e., medium, cells, plastic and matrix-bound fractions) were collected, at the first and last day of treatment, at different time points (i.e., 1, 3, 6, 24 h) selected on the basis of the intrinsic features of the compound and the cellular model. At each time point, the medium was transferred into amber glass vials and stored at −80 °C until HPLC analysis. Cells were washed twice with PBS (2 mL/well); to avoid dehydration of the cells, an aliquot of PBS was kept in each well. PBS was then removed, cells were scraped from the wells in 250 μL MeOH, additional 100 μL MeOH were added for washing and all the content was transferred into amber glass vials. The same procedure was applied also to the wells used for measuring matrix-bound material (without cells). Cells were then sonicated until they were fully homogenized (about 15 min). All fractions, including DMSO from control wells and MeOH used to measure possible plastic binding, were stored at −80 °C until HPLC analysis. Four biological replicates were carried out.
All samples from kinetic experiments were analysed using high-performance liquid chromatography (HPLC), as previously described, to quantify CPF and its metabolites. Prior to analysis, one volume of the collected medium samples was mixed with three volumes of MeOH. All the mixtures, including cell and matrix-bound samples, were vortexed for 30 s and then centrifuged (Eppendorf 5417R; 4 °C, 2500 rpm) for 10 min. Preliminary assays were conducted to evaluate CPF and its metabolite recovery after the solvent extraction procedure from each type of sample. […] Plastic-bound fraction was injected as such.
The HPLC system included a PerkinElmer Series 200 analytical pump, a Restek™ Pinnacle ODS Amine C18 column, a PerkinElmer LC 235 Diode Array Detector and the PerkinElmer Totalchrom™ 3.1.2 software for data acquisition and evaluation. For analysing CPF, CPFO and TCP, a gradient elution was applied at a flow rate of 1.0 mL/min, starting at 80:20 % methanol /buffer (Tris /HCl 50 mM EDTA 1 mM pH 7.4) and reaching after 4 min a percentage of 70:30 (v/v), respectively, maintained for 16 min. Then, the gradient returned to the initial concentration before the next sample was injected.

Turning to `CCOP(O)(=S)OCC` [diethylthiophosphate], in data set [1], the “level in human postpartum meconium” value is 2.0 to 5.6 µg/g.

For `CCCCc1oc2ccccc2c1C(=O)c1cc(I)c(OCCN(CC)CC)c(I)c1` [amiodarone, reference compound], the “log Kow” value in data set [2] is on record as 7.6.

For chlorpyrifos-oxon [CPFO], the “CPFO adsorbed to the plastic” value in data set [3] (any time point) is reported as “no CPFO adsorbed to the plastic was detectable”. Further, in data set [3] (last day of treatment), the CPFO detection result is listed as “no longer detectable”.

On to `Oc1nc(Cl)c(Cl)cc1Cl` [TCP, 3,5,6-trichloro-2-pyridinol], for which, in data set [3] (any time point), the “TCP in the intracellular compartment or adsorbed to the plastic” value is given as “No TCP was detectable”. Also, the “TCP present in the medium” value in data set [3] (first day of treatment with 21 μM CPF) was 6–18%; in data set [3] (last day of treatment with 21 μM CPF), 7–14%.

As to `CCOP(=O)(O)OCC` [diethylphosphate], the “level in human postpartum meconium” value in data set [1] is 0.80 to 3.20 µg/g.
